The target of test [1] is T1, recombinant LBD of estrogen receptor (ER) (Homo sapiens, UniProt P03372).
T1 sequence (P03372 311-547 limits assumed): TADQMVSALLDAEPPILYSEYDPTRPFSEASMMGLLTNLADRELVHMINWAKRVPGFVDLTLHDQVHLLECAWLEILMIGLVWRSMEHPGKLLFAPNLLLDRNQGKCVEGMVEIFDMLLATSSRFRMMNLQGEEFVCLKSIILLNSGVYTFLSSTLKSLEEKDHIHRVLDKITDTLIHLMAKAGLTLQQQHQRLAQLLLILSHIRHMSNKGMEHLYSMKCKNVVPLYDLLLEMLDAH
Kind of test: Competitive ligand-binding assay (fluorescent polarization), recombinant ER LBD. Particulars: 1 nM fluorescently labeled ligand, 5 h incubation, serial dilution. On the procedure: (§1) Competitive ligand-binding assays to detect the displacement of fluorescently labeled ligand from recombinant LBDs (ligand binding domains) of AR, PR, GR and estrogen receptor (ER) by R1881, MDV3100, Z (also referred to as EPI-002 or EPI) or 8d (also referred to as iodinated EPI) were performed. FIGS. 14A-14E display competitive ligand-binding curves to indicate whether R1881, Z, antiandrogens (enzalutamide, hydroxyflutamide, bicalutamide) or 8d can displace 1 nM fluorescently labeled cognant ligand from recombinant LBDs of steroid hormone receptors by using fluorescent polarization (mP). Serial dilution was performed for each test compound. Mixtures were incubated for 5 h before measurement of fluorescent polarization.

In a further test the test system is PC3 cells. Kind of test: PC3 cell viability, alamarBlue Cell Viability Assay. Particulars: day 3, at concentrations that reduced LNCaP proliferation. The format is cell-based. An excerpt: (§2) Effects of 8d (also referred to as I-EPI-002) on androgen-dependent proliferation of LNCaP cells treated with R1881 were compared with PC3 and DU145 cell viability by alamarBlue Cell Viability Assay (FIG. 16).
In general terms: The colour change of resazurin is a common sign of viable cells or microbes.

In another test the target is T2, estrogen receptor-α (ER) (Homo sapiens, UniProt P03372).
T2 construct: expression plasmids for full-length human ERα; expressed in transfected cells; host or cells: LNCaP
T2 sequence (P03372 1-595): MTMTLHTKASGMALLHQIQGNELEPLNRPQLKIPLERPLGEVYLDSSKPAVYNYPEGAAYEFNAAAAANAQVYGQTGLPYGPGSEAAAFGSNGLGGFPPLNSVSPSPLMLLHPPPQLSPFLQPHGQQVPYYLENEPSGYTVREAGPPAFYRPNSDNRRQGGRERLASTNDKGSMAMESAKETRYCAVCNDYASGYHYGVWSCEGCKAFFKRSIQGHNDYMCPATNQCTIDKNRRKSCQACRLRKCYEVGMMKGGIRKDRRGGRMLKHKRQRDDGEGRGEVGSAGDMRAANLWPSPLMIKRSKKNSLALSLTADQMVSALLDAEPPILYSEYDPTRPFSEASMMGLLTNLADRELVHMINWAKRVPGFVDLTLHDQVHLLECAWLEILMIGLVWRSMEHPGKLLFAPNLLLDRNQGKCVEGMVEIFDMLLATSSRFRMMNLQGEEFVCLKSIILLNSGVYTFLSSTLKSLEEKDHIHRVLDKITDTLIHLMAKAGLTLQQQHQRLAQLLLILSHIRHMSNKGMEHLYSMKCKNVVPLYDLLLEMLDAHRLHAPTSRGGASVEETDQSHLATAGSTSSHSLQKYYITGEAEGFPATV
Kind of test: ERE-luciferase reporter assay in LNCaP cells cotransfected with full-length human ERα. It counts as cell-based. Particulars: 1.9 μM 8d, 10 nM E2 (estradiol), 24 h, LNCaP cells (FIG. 2D). On the procedure: To assess specificity for the AR, parallel experiments were performed in LNCaP cells with endogenous AR and ectopic expression of other closely related human hormone receptors such as the progesterone receptor-beta (PRβ), glucocorticoid receptor (GR) and estrogen receptor-α (ER).
For 8d, 1 μg/mL=1.9 μM in FIGS. 2A-2D.

The subject of a further test is DU145 cells. Kind of test: DU145 cell viability, alamarBlue Cell Viability Assay. It counts as cell-based. Particulars: day 3, at concentrations that reduced LNCaP proliferation.
Description: as §2

The target of a further test is T3, recombinant LBD of PR (Homo sapiens, UniProt P06401).
T3 sequence (P06401 679-913 limits assumed): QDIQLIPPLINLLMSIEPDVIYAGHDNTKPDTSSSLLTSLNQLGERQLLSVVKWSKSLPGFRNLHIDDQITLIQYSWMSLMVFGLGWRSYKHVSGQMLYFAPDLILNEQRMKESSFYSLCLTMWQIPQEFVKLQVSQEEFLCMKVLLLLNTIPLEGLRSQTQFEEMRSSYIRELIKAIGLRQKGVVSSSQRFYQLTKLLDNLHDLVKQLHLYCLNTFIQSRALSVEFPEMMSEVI
Kind of test: Competitive ligand-binding assay (fluorescent polarization), recombinant PR LBD. The settings on record: 1 nM fluorescently labeled ligand, 5 h incubation, serial dilution. On the procedure:
as §1

The next test deals with T4, recombinant LBD of AR (Homo sapiens, UniProt P10275).
T4 sequence (P10275 669-900 limits assumed): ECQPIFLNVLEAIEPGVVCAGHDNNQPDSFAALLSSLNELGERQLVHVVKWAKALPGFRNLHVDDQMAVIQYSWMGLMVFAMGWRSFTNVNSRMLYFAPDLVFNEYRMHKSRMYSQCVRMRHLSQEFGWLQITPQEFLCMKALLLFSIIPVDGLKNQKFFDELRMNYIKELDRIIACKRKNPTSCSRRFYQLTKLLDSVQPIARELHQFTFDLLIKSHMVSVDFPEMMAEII
Kind of test: Competitive ligand-binding assay (fluorescent polarization), recombinant AR LBD. Particulars: 1 nM fluorescently labeled ligand, 5 h incubation, serial dilution. On the procedure: as §1

The target of a further test is T5, recombinant LBD of GR (Homo sapiens, UniProt P04150).
T5 sequence (P04150 524-758 limits assumed): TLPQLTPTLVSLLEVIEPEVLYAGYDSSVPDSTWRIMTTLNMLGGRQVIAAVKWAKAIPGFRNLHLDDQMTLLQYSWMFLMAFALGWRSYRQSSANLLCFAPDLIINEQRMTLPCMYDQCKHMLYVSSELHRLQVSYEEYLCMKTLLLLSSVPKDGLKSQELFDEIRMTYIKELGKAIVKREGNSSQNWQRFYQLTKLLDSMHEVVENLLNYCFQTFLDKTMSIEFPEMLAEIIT
Kind of test: Competitive ligand-binding assay (fluorescent polarization), recombinant GR LBD. The settings on record: 1 nM fluorescently labeled ligand, 5 h incubation, serial dilution. On the procedure:
as §1

Another test concerns LNCaP cells. Kind of test: Androgen-dependent proliferation of LNCaP cells, alamarBlue Cell Viability Assay. The format is cell-based. Particulars: LNCaP treated with R1881, day 4, alamarBlue.
Description: as §2

Consider `CC(C)(c1ccc(OC[C@H](O)CO)cc1)c1ccc(OC[C@H](O)CCl)c(I)c1` [Compound 8d, (R)-3-(4-(2-(4-((S)-3-chloro-2-hydroxypropoxy)-3-iodophenyl)propan-2-yl)phenoxy)propane-1,2-diol], for which the “binding to LBD of ER (displacement of fluorescently labeled ligand)” value in test [1] is “does not bind”. Further, the “viability of PC3 cells” value in the test on PC3 cells is “no effect”. The “ERα activity (ERE-luciferase)” value on estrogen receptor-α (ER) is reported as “not inhibited”. In addition, in the test with DU145 cells, the “viability of DU145 cells” value is “no effect”. Besides, the “binding to LBD of PR (displacement of fluorescently labeled ligand)” value on recombinant LBD of PR is recorded as “does not bind”. Besides, the “binding to LBD of AR (displacement of fluorescently labeled ligand)” value at recombinant LBD of AR is recorded as “does not bind”. Moreover, at recombinant LBD of GR, the “binding to LBD of GR (displacement of fluorescently labeled ligand)” value is “does not bind”. Further, the “AR-dependent proliferation of LNCaP cells” value in the test on LNCaP cells is reported as “reduced”.

For the origin of these results see patent US9375496B2, “Halogenated compounds for cancer imaging and treatment and methods for their use” (The University of British Columbia, priority 2013, dated 2016).
